# Results from patent US20230083417A1, “THERAPEUTIC COMBINATION FOR THE TREATMENT OF BRAIN ISCHEMIA AND SAID THERAPEUTIC COMBINATION FOR USE IN THE TREATMENT OF BRAIN ISCHEMIA” (Universiteit Maastricht, priority 2020, published 2023).
# “Also recorded” adds a separate entry of the source.
# Columns and labels:
# [1] = system: Human Brain Microvascular Endothelial Cells (HBMEC); experiment: HBMEC subjected to hypoxia (OGD), cell viability by MTT (Example 3); assay type: cell-based; settings: 6 h hypoxia, 24 h reperfusion; GKT136901 0.1 μM, BAY58-2667 0.01 μM, STMC 0.3 μM, alone or combined
# Experimental: Human Brain Microvascular Endothelial Cells (HBMEC) Subjected to Hypoxia. —HBMEC (Cell systems, USA) between passage 3 and 9 were cultured using specialized cell medium enriched with 5% fetal bovine serum. HBMECs were seeded (6×10^4 cells/ml) in 12 wells-plates and incubated during 24 h at 37° C. Later, cell medium was replaced for non-FBS containing medium followed by 6 h of hypoxia (94.8% N2, 0.2% O2 and 5% CO2) at 37° C. using hypoxia workstations. The hypoxia period was followed by 24 h of reperfusion in presence or absence of GKT136901 (GKT, 0.1 μM; NOXi), BAY58-2667 (BAY58, 0.01 μM; sGCa) or S-methyl-1-thiocitrulline (STMC, 0.3 μM; NOSi) or a combination of the three. Control cells were exposed to normoxia (75% N2, 20% O2 and 5% CO2), normal glucose concentration and enriched medium during the hypoxia period (Basal). After 24 h reperfusion, cell viability was assessed using the colorimetric MTT assay. MTT solution (5 mg/ml) was added to each well (100 μl/ml) and incubated for 2 h at 37° C. The formazan salt formed was solubilized by adding […] DMSO and measured spectrophotometrically at 540 nm.
# [2] = system: mice subjected to 45 min tMCAO; experiment: 45 min tMCAO in non-diabetic and STZ-diabetic mice, infarct size; assay type: in vivo; settings: i.p., GKT137831 10 mg/kg, SMTC 1 mg/kg, BAY58-2667 0.03 mg/kg, single or combined
# Experimental: Diabetes was induced in mice (6-9 weeks old) by i.p. injections of streptozotocin (STZ) (Merck Millipore, The Netherlands) dissolved in 0.5M sodium citrate buffer with a final dose of 55 mg/kg during 5 consecutive days. Blood glucose was measured daily for 7 days after the last STZ injection using a glucometer (Contor XT, Ascensia Diabetes Care, The Netherlands). Blood glucose levels higher than 12 mM 7 days after STZ injections were considered diabetic and therefore included in the study. Diabetic mice were monitored daily for any signs of welfare discomfort, and blood glucose levels were followed-up weekly (FIG. 18 (Table S2), FIG. 19 (Table S3)).
# Therefore, only the combination therapy was assessed.
# After animal sacrificing, brains were quickly removed and cut into four 2 mm thick coronal sections using a mouse brain slicer matrix (Zivic Instruments, The Netherlands). Brain slices were kept at 4° C. during 5 min and later stained using 2% 2,3,5-triphenyltetrazolium (TTC; Sigma-Aldrich, The Netherlands) for 15 min at room temperature in PBS to visualize the infarctions. Indirect infarct volumes were calculated by volumetry (ImageJ software, National Institutes of Health, USA) according to the following equation:
# Vindirect (mm^3)=Vinfarct×(1−(Vih−Vch)/Vch)
# where the term (Vih−Vch) represents the volume difference between the ischemic hemisphere and the control hemisphere and (Vih−Vch)/Vch expresses this difference as a percentage of the control hemisphere.
# [3] = system: Human Brain Microvascular Endothelial Cells (HBMECs); experiment: HBMEC under hypoxic conditions, cell viability by MTT (Example 5); assay type: cell-based; settings: 6 h hypoxia, 24 h re-oxygenation; GKT137831 0.3 μM, SMTC 0.1 μM, BAY 58-2667 0.03 μM, single or combined
# Experimental: HBME cells (Cell systems, USA) between passage 3 and 9 were cultured to ˜95% confluence using a specialized cell medium and grow factors (EGM-2 MV BulletKit, Lonza, The Netherlands) enriched with 5% fetal bovine serum (FBS; Sigma-Aldrich, The Netherlands). Before being subjected to hypoxia, HBMECs were seeded at 6×10^4 cells/ml in 12 wells-plate and incubated for 24 h at 37° C. Then, the cell medium was replaced with non-FBS containing medium (2 ml/well) followed by 6 h of hypoxia (94.8% N2, 0.2% 02 and 5% CO2) at 37° C. using the hypoxia workstations (Ruskin Invivo2 400 station, The Netherlands). […] Control cells were exposed to normoxia (75% N2, 20% O2, and 5% CO2) and enriched medium during the hypoxia period.
# 24 h post-re-oxygenation, cell viability was assessed using the colorimetric MTT (3-(4,5-dimethylthiazol-2-yl)-2,5-diphenyltetrazolium bromide) assay (24). MTT solution (5 mg/ml) was added (100 μl/ml) and incubated for 2 h at 37° C. The formazan salt formed was solubilized by adding DMSO (250 μl/well) for later measuring spectrophotometrically its optical density at 540 nm.
# [4] = system: rat hippocampal brain slices; experiment: Rat hippocampal brain slices, OGD and re-oxygenation, cell viability by MTT; assay type: cell-based; settings: 15 min OGD, 2 h re-oxygenation, GKT136901 0.1 μM, L-NAME 0.3 μM, BAY60-2770 0.01 μM, separately or combined at identical concentrations, vs untreated OGD
# Excerpt: Rat Hippocampal Brain Slice Experiments. —2-3 months old adult male Sprague-Dawley rats were used. For hippocampal slices preparation and induction of oxygen deprivation and glucose deprivation (OGD), animals were decapitated and the brains were removed and transferred into ice-cold Krebs bicarbonate dissection buffer containing glucose and sucrose. Thereafter, hippocampi were dissected and sectioned in transverse slices of 250 μm. To stabilize tissue after slicing, slices were transferred to sucrose-free dissection buffer during 45 minutes at 34° C. Then, control group slices were incubated 15 minutes in a Krebs solution. Slices subjected to OGD were incubated in a Krebs buffer pre-bubbled with 95% N2/5% CO2, where 2-deoxyglucose replaced glucose. OGD period was followed by 2 h of re-oxygenation at 37° C. where slices were returned back to an oxygenated Krebs solution containing glucose^8. During the re-oxygenation period, slices were treated with 0.01 μM BAY60-2770 (BAY; sGCa), 0.1 μM GKT136901 (GKT; NOXi) and 0.3 μM L-NAME (LN; NOSi) separately and in combination at identical respective doses of: NOXi and NOSi, NOSi and sGCa, NOXi and sGCa, and NOXi, NOSi and sGCa. Cellular viability was quantified by their ability to reduce MTT. After re-oxygenation, slices were incubated with MTT (0.5 mg/ml) in Krebs bicarbonate solution for 40 minutes at 37° C. The formazan produced was solubilized by adding 200 μl dimethyl sulfoxide, giving a colored compound whose optical density was measured in an ELISA microplate reader at 540 nm^9. The results of these measurements are depicted in FIG. 2, FIG. 4, FIG. 6 and FIG. 7.
# [5] = system: C57BL/6J mice subjected to middle cerebral artery occlusion (MCAO); experiment: In vivo MCAO ischemia model (1 h tMCAO), infarct volume by TTC; settings: for infarct volume: i.p. 1 h after reperfusion, L-NAME 3 mg/kg, GKT136901 10 mg/kg, BAY60-2770 0.5 μg/kg; for infarct volume / infarct size, single therapy: 24 h; for infarct volume / infarct volume, subthreshold doses and triple combination: alone or combined at identical doses; for infarct volume, subthreshold doses and triple combination: 1 h post-ischemia, i.p., PTU 3 mg/kg, PPZ 1 mg/kg, riociguat 0.004 mg/kg; for infarct size, single therapy: i.p. 1 h post-reperfusion, perphenazine 3 mg/kg, PTU 9 mg/kg, riociguat 0.01 mg/kg
# Experimental: In vivo MCAO Ischemia Model. —C57BL/6J mice were subjected to middle cerebral artery occlusion (MCAO) during 1 h followed by 24 h of reperfusion. Mice were anesthetized with 1.5% isoflurane (Abbott) in a 70% N2O/30% O2 mixture. Core body temperature was maintained at 37° C. The external carotid artery was ligated and a rubber-coated 6.0 nylon monofilament (6021; Doccol) was inserted to occlude the origin of the right MCA for 60 minutes. Then, animals were re-anesthetized and the occluding monofilament was withdrawn to allow for reperfusion^10. L-NAME (NOSi, 3 mg/kg) or propylthiouracil (NOSi, 9 mg/kg), GKT136901 (NOXi, 10 mg/kg) or perphenazine (NOXi, 3 mg/kg) and BAY60-2770 (sGCa, 0.5 μg/kg) or riociguat (sGCs, 0.1 mg/kg), as well as combinations of these compounds were dissolved and vehicle or compound(s) were injected intraperitoneally (i.p.) 1 h after reperfusion. After 23 h of reperfusion animals were sacrificed and brains were quickly removed and cut in 3 2-mm thick coronal sections. The slices were stained for 10 minutes at 37° C. with 2% 2,3,5-triphenyltetrazolium chloride (TTC, Sigma-Aldrich) in PBS to visualize the infarct volume. The results of these measurements are shown in FIG. 1, FIG. 3, FIG. 5 and FIG. 9.
# Based on a repurposing strategy, already marketed compounds validated as NOX inhibitors and NOS inhibitors were selected for further pre-clinical experimentation. Similarly, an already approved sGC stimulator was included repurposed for a non-cardiovascular indication. Wildtype mice were subjected to 1 h tMCAO and subsequently treated with each compound separately, in double combination or triple for later assessment of infarct volume 24 h post-stroke (FIG. 15A-G).
SMILES,cell viability (MTT) [1],"infarct size 24 h post-stroke, non-diabetic mice [2]","cell viability, normal glucose [3]",infarct volume [5],"infarct volume, subthreshold doses and triple combination [5]","infarct size, single therapy [5]",other results
"O=C(O)CCCCN(CCc1ccccc1OCc1ccc(CCc2ccccc2)cc1)Cc1ccc(C(=O)O)cc1 [BAY58-2667, cinaciguat]",lower cell viability than the control cells (Basal),no effect was detected,no reduction was detected,,,,
O=C(O)CCCCN(CCc1cc(F)ccc1OCc1ccc(-c2ccc(C(F)(F)F)cc2)cc1)Cc1ccc(C(=O)O)cc1 [BAY60-2770],,,,potent activity in reducing the infarct volume,,,"cell viability (MTT reduction) [4]: Neither the NOSi (L-NAME), nor the sGCa (BAY60) alone was able to improve cell viability; cell viability (MTT reduction) ([4]; listed as BAY): did not show improved cell viability; infarct volume ([5]; listed as BAY60): reduced infarct volume"
Cc1c2c(=O)n(-c3ccccc3Cl)[nH]c2cc(=O)n1Cc1ccccn1 [GKT136901],only a relatively small improvement in cell viability,,,potent activity in reducing the infarct volume,,,cell viability (MTT reduction) ([4]; listed as GKT): able to restore the cell viability of the hippocampal cells to some extent; also recorded: able to improve cell viability
CN(C)c1cccc(-c2c3c(=O)n(-c4ccccc4Cl)[nH]c3cc(=O)n2C)c1 [GKT137831],,no effect was detected,no reduction was detected,,,,
"COC(=O)[C@@H](N)CCCNC(=N)N[N+](=O)[O-] [L-NAME, N omega-Nitro-L-arginine methyl ester]",,,,potent activity in reducing the infarct volume,,,"cell viability (MTT reduction) [4]: Neither the NOSi (L-NAME), nor the sGCa (BAY60) alone was able to improve cell viability; cell viability (MTT reduction) ([4]; listed as LN): able to restore the cell viability of the hippocampal cells to some extent; infarct volume ([5]; listed as LN): reduced infarct volume"
"OCCN1CCN(CCCN2c3ccccc3Sc3ccc(Cl)cc32)CC1 [PPZ, perphenazine]",,,,,not able to reduce infarct volume; also recorded: no reduction of infarct volume; also recorded: without effect,significantly smaller infarct size,
"CCCc1cc(=O)[nH]c(=S)[nH]1 [PTU, propylthiouracil]",,,,,not able to reduce infarct volume; also recorded: no reduction of infarct volume; also recorded: without effect,tends to reduce,
"COC(=O)N(C)c1c(N)nc(-c2nn(Cc3ccccc3F)c3ncccc23)nc1N [Rio, riociguat]",,,,,not able to reduce infarct volume; also recorded: no reduction of infarct volume; also recorded: without effect,significantly smaller infarct size,
"CSC(N)=NCCC[C@H](N)C(=O)O [SMTC, S-Methyl-L-thiocitrulline]",only a relatively small improvement in cell viability,no effect was detected,no reduction was detected,,,,
